Data: patent US20260062412A1, “NITROGEN-CONTAINING HETEROCYCLIC COMPOUND HAVING MYT1 INHIBITORY ACTIVITY” (CHUGAI SEIYAKU KABUSHIKI KAISHA, priority 2023, published 2026)

Target: MYT1 protein (Homo sapiens (Human), UniProt Q99640)
Experiment: Test for binding to ATP binding site of MYT1 (Kinase Tracer 178 / Eu-Anti-GST antibody TR-FRET)
Details: ATP binding site of MYT1, 30 minutes at room temperature

Chain of MYT1 protein (Q99640 whole entry): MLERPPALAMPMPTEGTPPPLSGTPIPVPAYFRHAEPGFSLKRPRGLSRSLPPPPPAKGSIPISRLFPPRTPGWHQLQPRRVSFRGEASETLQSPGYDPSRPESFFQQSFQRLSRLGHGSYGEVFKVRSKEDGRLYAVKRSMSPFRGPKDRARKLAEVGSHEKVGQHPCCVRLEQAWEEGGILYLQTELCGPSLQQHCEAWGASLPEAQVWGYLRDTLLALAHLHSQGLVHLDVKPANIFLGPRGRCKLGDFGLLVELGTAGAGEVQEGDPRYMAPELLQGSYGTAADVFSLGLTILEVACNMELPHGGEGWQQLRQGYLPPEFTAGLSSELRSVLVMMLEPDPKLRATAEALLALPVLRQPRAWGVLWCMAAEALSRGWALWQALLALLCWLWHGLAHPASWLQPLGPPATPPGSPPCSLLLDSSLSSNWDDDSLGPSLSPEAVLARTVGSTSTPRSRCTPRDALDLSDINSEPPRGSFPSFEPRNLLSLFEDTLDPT

| SMILES | IC50 [nM] |
| --- | --- |
| CO[C@H](C)COc1cc2c(-c3ccc(F)c4[nH]ncc34)c(N)c(=O)[nH]c2c2cccnc12 [Compound C50, 3-Amino-4-(7-fluoro-1H-indazol-4-yl)-6-[(2R)-2-methoxypropoxy]-1H-1,7-phenanthrolin-2-one] | 4 |
| CC(c1cc2c(-c3ccc(F)c4[nH]ncc34)c(N)c(=O)[nH]c2c2cccnc12)C(F)(F)F (centres unmarked) [Compound C168, 3-Amino-4-(7-fluoro-1H-indazol-4-yl)-6-(1,1,1-trifluoropropan-2-yl)-1H-1,7-phenanthrolin-2-one] | 54 |
| CCCc1cc2c(-c3ccc(F)c4[nH]ncc34)c(N)c(=O)[nH]c2c2cccnc12 [Compound C106, 3-Amino-4-(7-fluoro-1H-indazol-4-yl)-6-propyl-1H-1,7-phenanthrolin-2-one] | 2.7 |
| Nc1c(-c2ccc(F)c3[nH]ncc23)c2cc(OC(F)F)c3ncccc3c2[nH]c1=O [Compound C21, 3-Amino-6-(difluoromethoxy)-4-(7-fluoro-1H-indazol-4-yl)-1H-1,7-phenanthrolin-2-one] | 2.8 |
| Nc1c(-c2ccc(Cl)c3[nH]ncc23)c2cc(C3CCN(C4COC4)CC3)ccc2[nH]c1=O [Compound A36, 3-Amino-4-(7-chloro-1H-indazol-4-yl)-6-[1-(oxetane-3-yl)piperidin-4-yl]-1H-quinolin-2-one] | 18 |
| Nc1c(-c2ccc(Cl)c3[nH]ncc23)c2cc(OCC3(F)CC3)c(F)cc2[nH]c1=O [Compound A72, 3-Amino-4-(7-chloro-1H-indazol-4-yl)-7-fluoro-6-[(1-fluorocyclopropyl)methoxy]-1H-quinolin-2-one] | 96 |
| Nc1c(-c2cncc3[nH]ncc23)c2cc(Br)c3ncccc3c2[nH]c1=O [Compound C80, 3-Amino-6-bromo-4-(1H-pyrazolo[3,4-c]pyridin-4-yl)-1H-1,7-phenanthrolin-2-one] | 100 |
| Nc1c(-c2ccc(Cl)c3[nH]ncc23)c2cc(Br)c3ccccc3c2[nH]c1=O [Compound B36, 3-Amino-6-bromo-4-(7-chloro-1H-indazol-4-yl)-1H-benzo[h]quinolin-2-one] | 14 |
| Nc1c(-c2ccc(F)c3[nH]ncc23)c2cc(O[C@@H]3CCOC3)c3ncccc3c2[nH]c1=O [Compound C5, 3-Amino-4-(7-fluoro-1H-indazol-4-yl)-6-[(3R)-oxolan-3-yl]oxy-1H-1,7-phenanthrolin-2-one] | 1.4 |
| CC(C)c1cc2c(-c3ccc(F)c4[nH]ncc34)c(N)c(=O)[nH]c2c2cccnc12 [Compound C104, 3-Amino-4-(7-fluoro-1H-indazol-4-yl)-6-propan-2-yl-1H-1,7-phenanthrolin-2-one] | 3.4 |
| Cc1nc2[nH]c(=O)c(N)c(-c3ccc(Cl)c4[nH]ncc34)c2cc1O[C@H]1C[C@H](F)C1 [Compound A15, 3-Amino-4-(7-chloro-1H-indazol-4-yl)-6-((1r,3r)-3-fluorocyclobutyl)oxy-7-methyl-1H-1,8-naphthyridin-2-one] | 13 |
| COC1(COc2cc3c(-c4ccc(F)c5[nH]ncc45)c(N)c(=O)[nH]c3c3cccnc23)CC1 [Compound C53, 3-Amino-4-(7-fluoro-1H-indazol-4-yl)-6-[(1-methoxycyclopropyl)methoxy]-1H-1,7-phenanthrolin-2-one] | 4.2 |
| Nc1c(-c2ccc(F)c3[nH]ncc23)c2cc(OCC3CCC3)c3ncccc3c2[nH]c1=O [Compound C9, 3-Amino-6-(cyclobutylmethoxy)-4-(7-fluoro-1H-indazol-4-yl)-1H-1,7-phenanthrolin-2-one] | 3.2 |
| Nc1c(-c2ccc(F)c3[nH]ncc23)c2cc(N3CC(F)(F)C3)c3ncccc3c2[nH]c1=O [Compound C123, 3-Amino-6-(3,3-difluoroazetidin-1-yl)-4-(7-fluoro-1H-indazol-4-yl)-1H-1,7-phenanthrolin-2-one] | 3.4 |
| Nc1c(-c2ccc(F)c3[nH]ncc23)c2cc(SC(F)F)c3ncccc3c2[nH]c1=O [Compound C63, 3-Amino-6-(difluoromethylsulfanyl)-4-(7-fluoro-1H-indazol-4-yl)-1H-1,7-phenanthrolin-2-one] | 1.1 |
| Nc1c(-c2ccc(Cl)c3[nH]ncc23)c2cc(C3CCC3)c3ccccc3c2[nH]c1=O [Compound B39, 3-Amino-4-(7-chloro-1H-indazol-4-yl)-6-cyclobutyl-1H-benzo[h]quinolin-2-one] | 10 |
| Nc1c(-c2ccc(F)c3[nH]ncc23)c2cc(C3CC3)c3c(Cl)cccc3c2[nH]c1=O [Compound B17, 3-Amino-7-chloro-6-cyclopropyl-4-(7-fluoro-1H-indazol-4-yl)-1H-benzo[h]quinolin-2-one] | 15 |
| Nc1c(-c2cc(F)c(F)c3[nH]ncc23)c2ccc3ncccc3c2[nH]c1=O [Compound C197, 3-Amino-4-(6,7-difluoro-1H-indazol-4-yl)-1H-1,7-phenanthrolin-2-one] | 20 |
| C[C@@H](F)COc1cc2c(-c3ccc(F)c4[nH]ncc34)c(N)c(=O)[nH]c2c2cccnc12 [Compound C61, (R)-3-amino-4-(7-fluoro-1H-indazol-4-yl)-6-(2-fluoropropoxy)-1,7-phenanthrolin-2(1H)-one] | 1.7 |
| CC(C)(O)CCOc1cc2c(-c3ccc(F)c4[nH]ncc34)c(N)c(=O)[nH]c2c2cccnc12 [Compound C20, 3-Amino-4-(7-fluoro-1H-indazol-4-yl)-6-(3-hydroxy-3-methylbutoxy)-1H-1,7-phenanthrolin-2-one] | 3.6 |
| N#Cc1cc2c(-c3ccc(Cl)c4[nH]ncc34)c(N)c(=O)[nH]c2c2cccnc12 [Compound C148, 3-Amino-4-(7-chloro-1H-indazol-4-yl)-2-oxo-1H-1,7-phenanthroline-6-carbonitrile] | 4.1 |
| Nc1c(-c2cccc(O)c2)c2ccccc2[nH]c1=O [Compound A66, 3-Amino-4-(3-hydroxyphenyl)-1H-quinolin-2-one] | 380 |
| Nc1c(-c2ccccc2)c2ccccc2[nH]c1=O [Compound A70, 3-Amino-4-phenyl-1H-quinolin-2-one] | 6200 |
| Cc1cc2c(-c3cccc4[nH]nnc34)c(N)c(=O)[nH]c2c2cccnc12 [Compound C224, 3-Amino-4-(1H-benzotriazol-4-yl)-6-methyl-1H-1,7-phenanthrolin-2-one] | 3000 |
| Nc1c(-c2ccc(F)c3[nH]ncc23)c2cc(O[C@@H]3CCCOC3)c3ncccc3c2[nH]c1=O [Compound C46, 3-Amino-4-(7-fluoro-1H-indazol-4-yl)-6-[(3R)-oxan-3-yl]oxy-1H-1,7-phenanthrolin-2-one] | 2.9 |

Second part, the molecule after the results:

| IC50 [nM] | SMILES |
| --- | --- |
| 3.2 | COc1cc2c(-c3ccc(F)c4[nH]ncc34)c(N)c(=O)[nH]c2c2ccc(=O)[nH]c12 [Compound T4, 3-Amino-4-(7-fluoro-1H-indazol-4-yl)-6-methoxy-1,7-dihydro-1,7-phenanthroline-2,8-dione] |
| 16 | Nc1c(-c2ccc(F)c3[nH]ncc23)c2cc(Br)c3nccnc3c2[nH]c1=O [Compound G1, 8-Amino-5-bromo-7-(7-fluoro-1H-indazol-4-yl)-10H-pyrido[2,3-f]quinoxalin-9-one] |
| 10 | Cn1cnc2c3[nH]c(=O)c(N)c(-c4ccc(F)c5[nH]ncc45)c3cc(Br)c21 [Compound M1, 7-Amino-4-bromo-6-(7-fluoro-1H-indazol-4-yl)-3-methyl-9H-imidazo[4,5-h]quinolin-8-one] |
| 9.3 | CS(=O)(=O)Nc1cc2c(-c3ccc(F)c4[nH]ncc34)c(N)c(=O)[nH]c2c2nccnc12 [Compound G5, N-[8-amino-7-(7-fluoro-1H-indazol-4-yl)-9-oxo-10H-pyrido[2,3-f]quinoxalin-5-yl]methanesulfonamide] |
| 7 | CC(C)Nc1cc2c(-c3ccc(F)c4[nH]ncc34)c(N)c(=O)[nH]c2c2ncccc12 [Compound D20, 3-Amino-4-(7-fluoro-1H-indazol-4-yl)-6-(propan-2-ylamino)-1H-1,10-phenanthrolin-2-one] |
| 1.7 | Nc1c(-c2ccc(F)c3[nH]ncc23)c2cc(Br)c3ncsc3c2[nH]c1=O [Compound K1, 7-Amino-4-bromo-6-(7-fluoro-1H-indazol-4-yl)-9H-[1,3]thiazolo[4,5-h]quinolin-8-one] |
| 7.4 | Nc1c(-c2ccc(F)c3[nH]ncc23)c2cc(NS(=O)(=O)C3CC3)c3nccnc3c2[nH]c1=O [Compound G6, N-[8-amino-7-(7-fluoro-1H-indazol-4-yl)-9-oxo-10H-pyrido[2,3-f]quinoxalin-5-yl]cyclopropanesulfonamide] |
| 3.1 | Cc1cc2c(-c3ccc(F)c4[nH]ncc34)c(N)c(=O)[nH]c2c2ncncc12 [Compound J2, 8-Amino-7-(7-fluoro-1H-indazol-4-yl)-5-methyl-10H-pyrido[3,2-h]quinazolin-9-one] |
| 3.9 | Nc1c(-c2ccc(F)c3[nH]ncc23)c2cc(N3CC4(COC4)C3)c3cccnc3c2[nH]c1=O [Compound D10, 3-Amino-4-(7-fluoro-1H-indazol-4-yl)-6-(2-oxa-6-azaspiro[3,3]heptan-6-yl)-1H-1,10-one] |
| 2.5 | CN1CCN(c2cc3c(-c4ccc(F)c5[nH]ncc45)c(N)c(=O)[nH]c3c3nccnc23)CC1 [Compound G7, 8-Amino-7-(7-fluoro-1H-indazol-4-yl)-5-(4-methylpiperazin-1-yl)-10H-pyrido[2,3-f]quinoxalin-9-one] |
| 3.3 | COc1cc2c(-c3cc(F)c(F)c4[nH]ncc34)c(N)c(=O)[nH]c2c2cc(F)cnc12 [Compound F5, 3-Amino-4-(6,7-difluoro-1H-indazol-4-yl)-9-fluoro-6-methoxy-1H-1,7-phenanthrolin-2-one] |
| 2.2 | CCOc1cc2c(-c3ccc(F)c4[nH]ncc34)c(N)c(=O)[nH]c2c2ccc(=O)[nH]c12 [Compound T6, 3-Amino-6-ethoxy-4-(7-fluoro-1H-indazol-4-yl)-1,7-dihydro-1,7-phenanthroline-2,8-dione] |
| 49 | Nc1c(-c2ccc(F)c3[nH]ncc23)c2cc(N3CCN4CCOC[C@H]4C3)c3cccnc3c2[nH]c1=O [Compound D12, 6-[(9aR)-3,4,6,7,9,9a-hexahydro-1H-pyrazino[2,1-c][1,4]oxazin-8-yl]-3-amino-4-(7-fluoro-1H-indazol-4-yl)-1H-1,10-phenanthrolin-2-one] |
